In brackets after ≈: the same amount, converted by molar mass. Entries after “also recorded” stand apart in the source; their conditions may differ. Like-named read-outs stand apart in the source and are kept apart here.
Tests used:
[1] = tested on: A2780 human cancer cell line; assay: MTT anti-proliferation assay, A2780; type: cell-based; conditions: for IC50: Homo sapiens, read-out: IC50 A2780
Experimental: (§1) The cytotoxicities of these compounds were tested on five cancer cell lines by the standard MTT assay. […] The growing tumor cells at a density 10^4 cells/mL were exposed to various concentrations of the tested drugs and incubated in a 96-well microtiter plate for 96 h (37 °C, 5% CO2). After MTT solution (20 μL, 5 mg/mL) was added to each well, the plate was incubated for a further 4 h. Then the media was removed. Formazan crystals were dissolved with DMSO (150 μL). After mixing well, the absorbance was quantified at 570 nm with a BIORAD 550 spectrophotometer. Wells containing no drugs were used as blanks. […] Tumor cell growth inhibitory rate was calculated in the following equation (1): [drawing 3] (1)

[2] = tested on: BGC-823 human cancer cell line; assay: MTT anti-proliferation assay, BGC-823; type: cell-based; conditions: for IC50: Homo sapiens, read-out: IC50 BGC-823
Experimental: as §1

[3] = tested on: Bel-7402 human cancer cell line; assay: MTT anti-proliferation assay, Bel-7402; type: cell-based; conditions: for IC50: Homo sapiens, read-out: IC50 Bel 7402
Experimental: as §1

[4] = tested on: HCT-8 human cancer cell line; assay: MTT anti-proliferation assay, HCT-8; type: cell-based; conditions: for IC50: Homo sapiens, read-out: IC50 HCT-8
Experimental: as §1

[5] = tested on: chick chorioallantoic membrane (CAM); assay: Chick chorioallantoic membrane (CAM) angiogenesis assay; type: in vivo, White Leghorn chicken; conditions: for Number of microvessels on CAM, treatment (mean ± s): n = 6, implanted day 7, read day 11, microvessels 1 to 100 μm in diameter; for Anti-angiogenesis effect on CAM (in words): doses of 10 μg/egg and 40 μg/egg
Experimental: Fertilized White Leghorn chicken eggs, provided by the Chinese Academy of Agricultural Sciences, were placed in an incubator as soon as embryogenesis started and were kept under constant humidity of 65% at 37 °C. On day 7, a square window was opened on the shell and physiological saline (0.1 mL) was injected in to detach the shell membrane. Then gelatin sponges carrying the TMP stimulator derivatives at 10 μg/egg and 40 μg/egg were implanted, respectively. The control group was treated with physiological saline. The windows were sealed with medical adhesive tape and the incubation went on till the experiment day. The above steps were performed under sterile conditions. On the 11th day, the tapes were removed and the entire CAM was detached after tissue fixation with methanol/acetone (1:1, v/v). Then we used computer-assisted image tracking to obtain absolute values for the number of microvessels which were 1 to 100 μm in diameter. Data were analyzed using the t-test option of the of Statistics Analysis System, the values were expressed as mean ± s of 6 observations and P < 0.05 was considered significant.

[6] = tested on: A-549 human cancer cell line; assay: MTT anti-proliferation assay, A549; type: cell-based; conditions: for IC50: Homo sapiens, read-out: IC50 A549
Experimental: as §1

[7] = Acute toxicity by oral administration in mice; type: in vivo; conditions: both sexes, Kunming, mouse, in vivo, 3 g/kg, oral administration
Experimental: (§2) Kunming mice (Beijing Vital River Laboratory Animal Technology Company Limited, China) of both sexes, weighing 18–22 g, were divided into […] matched in weight and size. The mice were placed in cages and kept under standard environmental conditions with a standard rodent diet and water ad libitum under a 12 h light-dark cycle. They were deprived of food for 24 h but allowed free access to tap water throughout the experiments. This research was carried out in accordance with the “Regulation for the Administration of Affairs Concerning Experimental Animals” (State Council of China, 1988).
(§3) The maximum suspended dose (75 mg/mL) of 5 was prepared in bean oil solution, then one group of 20 mice of both sexes were administered the maximum tolerated dose (0.4 mL/10 g) by oral administration. The other 20 mice, the control group, were gave bean oil (0.4 mL/10 g) via gavage.The general behavior of the mice was observed continuously for 1 h after the treatment and then intermittently for 4 h, and thereafter over a period of 24 h. The mice were further observed for up to 14 days following treatment for any signs of toxicity and deaths, and the latency of death. Behavioral, toxic effects and mortality response were recorded.

[8] = tested on: Kunming mice; assay: Acute toxicity by oral administration in mice; type: in vivo; conditions: oral (gavage) 3 g/kg in bean oil, observed two weeks
Experimental: as §2, §3

[9] = MTT, 96 h exposure, maximal tested concentration 10.0 ig/mL
[10] = A2780, MTT, 96 h exposure, maximal tested concentration 10.0 ig/mL
[11] = BGC-823, MTT, 96 h exposure, maximal tested concentration 10.0 ig/mL
[12] = Bel-7402, MTT, 96 h exposure, maximal tested concentration 10.0 ig/mL
[13] = HCT-8, MTT, 96 h exposure, maximal tested concentration 10.0 ig/mL
[14] = A549, MTT, 96 h exposure, maximal tested concentration 10.0 ig/mL

| Compound | IC50 [1, 10] [µg/mL] | IC50 [2, 11] [µg/mL] | IC50 [3, 12] [µg/mL] | IC50 [4, 13] [µg/mL] | IC50 [6, 14] [µg/mL] | Number of microvessels on CAM, treatment (mean ± s) ([5]; dose 10 μg/egg) | Number of microvessels on CAM, treatment (mean ± s) ([5]; dose 40 μg/egg) | further results |
| --- | --- | --- | --- | --- | --- | --- | --- | --- |
| 1,7-bis(4-(3,5,6-Trimethylpyrazin-2-yl)-3-methoxyphenyl)-1,6-heptadiene-3,5-dione [Compound 4] |  |  |  |  |  | 3.8 ± 2.79 | 1.4 ± 1.22 | IC50 A2780 [1, 9]: 5.540 µg/mL; IC50 BGC-823 [2, 9]: 5.472 µg/mL; IC50 Bel 7402 [3, 9]: 6.391 µg/mL; IC50 HCT-8 [4, 9]: 7.106 µg/mL; Anti-angiogenesis effect on CAM (in words) [5]: dramatically block the growth of new vessels; IC50 A549 [6, 9]: 5.890 µg/mL |
| C[C@H](CCC(=O)O)[C@H]1CC[C@H]2[C@@H]3[C@H](O)C[C@@H]4C[C@H](O)CC[C@]4(C)[C@H]3C[C@H](O)[C@]12C [CA, cholic acid] |  |  |  |  |  |  |  | IC50 ([1]; A2780, 96 h): > 10 µg/mL; IC50 ([2]; BGC-823, 96 h): > 10 µg/mL; IC50 ([3]; Bel-7402, 96 h): > 10 µg/mL; IC50 ([4]; HCT-8, 96 h): > 10 µg/mL; IC50 ([6]; A549, 96 h): > 10 µg/mL |
| O=C(O)/C=C/c1ccccc1 [CIA, cinnamic acid] | > 10 | > 10 | > 10 | > 10 | > 10 |  |  |  |
| COc1cc(/C=C/C(=O)CC(=O)/C=C/c2ccc(O)c(OC)c2)ccc1O [CU, curcumin] | 6.52 (≈ 17.7 µM) | 6.81 (≈ 18.5 µM) | 6.5 (≈ 17.6 µM) | 6.28 (≈ 17 µM) | 6.52 (≈ 17.7 µM) |  |  |  |
| Cc1nc(C)c(COC(=O)CC[C@@H](C)C2CCC3C4CCC5C[C@H](O)CCC5(C)C4C[C@H](O)C32C)nc1C (stereo partly drawn) [Compound 5, 3 α,12α-Dihydroxy-5β-dholanic acid-3,5,6-trimethylpyrazin-2-methyl ester] | 6.62 (≈ 12.6 µM) | 6.66 (≈ 12.6 µM) | 8.01 (≈ 15.2 µM) | 7.43 (≈ 14.1 µM) | 6.69 (≈ 12.7 µM) | 4.8 ± 3.71 | 7.5 ± 3.40 | LD50 at 14 days [7]: > 3000 mg/kg; MTD at 14 days ([7]; read-out: Maximum tolerated dose): 3000 mg/kg; Deaths or signs of toxicity [8]: no deaths or signs of toxicity observed; also recorded: no toxicity; Anti-angiogenesis effect on CAM (in words) [5]: dramatically block the growth of new vessels |
| Cc1nc(C)c(COC(=O)CC[C@@H](C)C2CCC3C4C(C[C@H](O)C32C)C2(C)CC[C@@H](O)CC2C[C@H]4O)nc1C (stereo partly drawn) [Compound 6, 3α,7α,12α-Trihydroxy-5β-cholanic acid-3,5,6-trimethylpyrazin-2-methyl ester] | > 10 | > 10 | > 10 | > 10 | > 10 | 6.2 ± 2.40 | 5.7 ± 2.07 |  |
| Cc1nc(C)c(COC(=O)C23CCC(C)(C)CC2C2=CCC4C5(C)CCC(O)C(C)(C)C5CCC4(C)[C@]2(C)CC3)nc1C (stereo partly drawn) [Compound 7, 3β-Hydroxyolea-12-en-28-oic acid-3,5,6-trimethylpyrazin-2-methyl ester] | > 10 | > 10 | 7.61 (≈ 12.9 µM) | 9.27 (≈ 15.7 µM) | > 10 | 12.0 ± 2.90 | 9.5 ± 4.55 |  |
| C=C(CCC(C(=O)OCc1nc(C)c(C)nc1C)C1[C@H](O)C[C@@]2(C)C3=C(CCC12C)C1(C)CCC(OC(C)=O)C(C)(C)C1CC3)C(C)C (stereo partly drawn) [Compound 8, 3β-Acetoxy-16α-hydroxy-lanosta-8,24(31)-diene-21-oic acid-3,5,6-trimethylpyrazin-2-methyl ester] | > 10 | > 10 | > 10 | > 10 | > 10 | 9.7 ± 3.98 | 10.8 ± 5.12 |  |
| C=C(CCC(C(=O)OCc1nc(C)c(C)nc1C)C1[C@H](O)C[C@@]2(C)C3=CCC4C(C)(CCC(OC(C)=O)C4(C)C)C3=CCC12C)C(C)C (stereo partly drawn) [Compound 9, 3β-Acetoxy-16α-hydroxy-lanosta-7,9(11),24(31)-trien-21-oic acid-3,5,6-trimethylpyrazin-2-methyl ester] | > 10 | > 10 | > 10 | > 10 | 8.77 (≈ 13.3 µM) | 7.7 ± 2.16 | 5.7 ± 1.21 |  |
| Cc1nc(C)c(COC(=O)[C@@]2(C)CCC3(C)CC[C@]4(C)C(=CC(=O)C5C6(C)CCC(O)C(C)(C)C6CCC54C)C3C2)nc1C (stereo partly drawn) [Compound 10, (3β,18α,20β)-3-Hydroxy-11-oxoolean-12-en-29-oicacid-3,5,6-trimethylpyrazin-2-methyl ester] | > 10 | > 10 | > 10 | > 10 | > 10 | 9.5 ± 1.76 | 9.8 ± 2.14 |  |
| C=C(CCC(C(=O)O)[C@H]1[C@H](O)C[C@@]2(C)C3=CC[C@H]4C(C)(C)[C@@H](OC(C)=O)CC[C@]4(C)C3=CC[C@]12C)C(C)C (stereo partly shown) [DPA, dehydropachymic acid] |  |  |  |  |  |  |  | IC50 A2780 [1, 9]: — (IC50 > 10.0 ig/mL); IC50 BGC-823 [2, 9]: — (IC50 > 10.0 ig/mL); IC50 Bel 7402 [3, 9]: — ^a (IC50 > 10.0 ig/mL); IC50 HCT-8 [4, 9]: — (IC50 > 10.0 ig/mL); IC50 A549 [6, 9]: — (IC50 > 10.0 ig/mL) |
| C=C(CC[C@@H](C(=O)O)[C@H]1[C@H](O)C[C@@]2(C)C3=C(CC[C@]12C)[C@@]1(C)CC[C@H](OC(C)=O)C(C)(C)[C@@H]1CC3)C(C)C [PA, pachymic acid] | > 10 | > 10 | > 10 | > 10 | > 10 |  |  |  |

Now from value to compound, other results behind:

| IC50 [1, 10] [µg/mL] | IC50 [2, 11] [µg/mL] | IC50 [3, 12] [µg/mL] | IC50 [4, 13] [µg/mL] | IC50 [6, 14] [µg/mL] | Compound | Number of microvessels on CAM, treatment (mean ± s) ([5]; dose 10 μg/egg) | Number of microvessels on CAM, treatment (mean ± s) ([5]; dose 40 μg/egg) | further results |
| --- | --- | --- | --- | --- | --- | --- | --- | --- |
| > 10 | > 10 | 9.4 (≈ 33.3 µM) | > 10 | 7.83 (≈ 27.7 µM) | Cc1nc(C)c(COC(=O)/C=C/c2ccccc2)nc1C [Compound 11, 3-Phenyl-2-propenoic acid-3,5,6-trimethylpyrazin-2-methyl ester] | 10.3 ± 2.73 | 7.0 ± 3.03 |  |
| > 10 | > 10 | > 10 | > 10 | > 10 | C[C@H](CCC(=O)O)[C@H]1CC[C@H]2[C@@H]3CC[C@@H]4C[C@H](O)CC[C@]4(C)[C@H]3C[C@H](O)[C@]12C [DA, deoxycholic acid] |  |  |  |
| > 10 | > 10 | > 10 | > 10 | > 10 | CC1(C)[C@@H](O)CC[C@]2(C)[C@H]3C(=O)C=C4[C@@H]5C[C@@](C)(C(=O)O)CC[C@]5(C)CC[C@@]4(C)[C@]3(C)CC[C@@H]12 [GA, glycyrrhetinic acid] |  |  |  |
| > 10 | > 10 | > 10 | > 10 | > 10 | CC1(C)CC[C@]2(C(=O)O)CC[C@]3(C)C(=CC[C@@H]4[C@@]5(C)CC[C@H](O)C(C)(C)[C@@H]5CC[C@]43C)[C@@H]2C1 [OA, oleanolic acid] |  |  |  |
| > 10 | > 10 | > 10 | > 10 | > 10 | Cc1nc(C)c(C)nc1C [TMP, ligustrazine] |  |  |  |
